Reference: patent publication US11753445B2, “Therapeutic peptides” (COHBAR, INC., priority 2016, dated 2023)
Peptide text beside a SMILES is read from it.

Tested on: 3T3-L1 Adipocytes
Test: Free fatty acid levels in cultured mouse 3T3-L1 adipocytes, isoproterenol stimulated (Example 2)
Type: cell-based
Conditions: test peptides 25 μM; isoproterenol 1 nM
Experimental: Mouse 3T3-L1 cells were seeded at a density between 1,000-20,000 cells per well on 96-well, 48-well, or 24-well plates in Pre-adipocyte Medium (Zen-Bio, Durham, N.C.) and grown to confluence at 37° C. in a humidified atmosphere of 5% CO2/95% air. Two days after confluence, cells were placed in Adipocyte Differentiation Medium (Zen-Bio, Durham, N.C.) and cultured for three additional days at 37° C. in a humidified atmosphere of 5% CO2/95% air. The culture media was then replaced with Adipocyte Maintenance Medium (Zen-Bio) and the cells were maintained for an additional 9-14 days at 37° C. in a humidified atmosphere of 5% CO2/95% air with partial medium replacement every other day. Following 12-17 days of differentiation, test peptides were added at a final concentration of 25 μM and incubated for 18-20 hours in Adipocyte Maintenance Medium at 37° C. in a humidified atmosphere of 5% CO2/95%. After 18-20 hours, the media was exchanged with fresh Adipocyte Maintenance Medium containing test peptides and incubated for 1 h at 37° C. in a humidified atmosphere of 5% CO2/95%. After 1 h media was exchanged with Assay Buffer (Zen-Bio) containing isoproterenol (1 nM) (added to all samples except untreated controls) and the test peptides. Cells were incubated for a further 3 hours at 37° C. in a humidified atmosphere of 5% CO2/95%. Free fatty acid concentrations in the media were determined using a Free Fatty Acid Assay Kit (Zen-Bio) according to the manufacturer's instructions using a plate reader (540 nm).
Absorbance values were corrected for untreated background and expressed relative to isoproterenol treated cells. Treatment with isoproterenol (1 nM) alone was used as the free fatty acid level stimulatory control. The relative standard deviation of the isoproterenol control was <10%. […] Free fatty acid levels for insulin (100 nM) treatment were <5% of the isoproterenol control value.

Molecule | Free Fatty Acid Levels in 3T3-L1 Adipocytes Expressed as a Percent of Isoproterenol Control: Percent of Control Value [%]
CC[C@H](C)[C@H](NC(=O)[C@H](Cc1ccc(O)cc1)NC(=O)CNC(=O)[C@H](C)NC(=O)[C@H](CCC(=O)O)NC(=O)[C@H](CCC(N)=O)NC(=O)[C@H](Cc1c[nH]c2ccccc12)NC(=O)[C@H](CCCNC(=N)N)NC(=O)[C@@H](C)N)C(=O)N[C@@H](C)C(=O)N[C@@H](CCC(=O)O)C(=O)N1CCC[C@H]1C(=O)N[C@@H](CCCNC(=N)N)C(=O)N[C@@H](CCCCN)C(=O)N[C@@H](CC(C)C)C(=O)N[C@H](C)C(=O)O [compound 246] (HELM PEPTIDE1{[dA].R.W.Q.E.A.G.Y.I.A.E.P.R.K.L.[dA]}$$$$V2.0) | 73.9
CC[C@H](C)[C@H](NC(=O)[C@H](Cc1ccc(O)cc1)NC(=O)CNC(=O)[C@H](CCSC)NC(=O)[C@H](CCC(=O)O)NC(=O)[C@H](CCC(N)=O)NC(=O)[C@H](Cc1c[nH]c2ccccc12)NC(=O)[C@H](CCCNC(=N)N)NC(=O)[C@@H](N)CCSC)C(=O)N[C@@H](Cc1ccccc1)C(=O)N[C@@H](Cc1ccc(O)cc1)C(=O)N1CCC[C@H]1C(=O)N[C@@H](CCCNC(=N)N)C(=O)N[C@@H](CCCCN)C(=O)NC(CC)(CC)C(=O)N[C@@H](CCCNC(=N)N)C(N)=O [compound 200] (HELM PEPTIDE1{M.R.W.Q.E.M.G.Y.I.F.Y.P.R.K.[CCC(CC)(N[*:1])C(=O)[*:2]].R.[am]}$$$$V2.0) | 80.2
CC[C@H](C)[C@H](NC(=O)[C@H](Cc1ccc(O)cc1)NC(=O)CNC(=O)[C@H](C)NC(=O)[C@H](CCC(=O)O)NC(=O)[C@H](CCC(N)=O)NC(=O)[C@H](Cc1c[nH]c2ccccc12)NC(=O)[C@H](CCCNC(=N)N)NC(=O)[C@@H](C)N)C(=O)N[C@@H](Cc1ccccc1)C(=O)N[C@@H](CCC(=O)O)C(=O)N1CCC[C@H]1C(=O)N[C@@H](CCCNC(=N)N)C(=O)O [compound 244] (HELM PEPTIDE1{[dA].R.W.Q.E.A.G.Y.I.F.E.P.R}$$$$V2.0) | 90.3
Ac-MRWQEMGYIFYPAKLR-NH2 [compound 34] | 70.7
Ac-MRWQDMGYIFYPRRLR-NH2 [compound 132] | 102.6
CC[C@H](C)[C@H](NC(=O)[C@H](Cc1ccc(O)cc1)NC(=O)CNC(=O)[C@H](CCSC)NC(=O)[C@H](CCC(=O)O)NC(=O)[C@H](CCC(N)=O)NC(=O)[C@H](Cc1c[nH]c2ccccc12)NC(=O)[C@H](CCCNC(=N)N)NC(=O)[C@H](CCSC)NC(C)=O)C(=O)N[C@@H](Cc1ccccc1)C(=O)N[C@@H](Cc1ccc(O)cc1)C(=O)N1CCC[C@H]1C(=O)N[C@@H](CCCNC(=N)N)C(=O)N[C@@H](CCCCN)C(=O)NC(CC)(CC)C(=O)N[C@@H](CCCNC(=N)N)C(=O)O [compound 199] (HELM PEPTIDE1{[ac].M.R.W.Q.E.M.G.Y.I.F.Y.P.R.K.[CCC(CC)(N[*:1])C(=O)[*:2]].R}$$$$V2.0) | 48.0
Ac-MRWQEMGEIFEPRKLR-NH2 [compound 135] | 79.0
H-ERWQEAGYIFYPRKLA-OH [compound 233] | 69.7
CC[C@H](C)[C@H](NC(=O)[C@H](Cc1ccc(O)cc1)NC(=O)CNC(=O)[C@H](CCSC)NC(=O)[C@H](CCC(=O)O)NC(=O)[C@H](CCC(N)=O)NC(=O)[C@H](Cc1c[nH]c2ccccc12)NC(=O)[C@H](CCCNC(=N)N)NC(=O)[C@H](CCSC)NC(C)=O)C(=O)N[C@@H](Cc1ccccc1)C(=O)N[C@@H](Cc1ccc(O)cc1)C(=O)N1CCC[C@H]1C(=O)N[C@@H](CCCNC(=N)N)C(=O)N[C@H](C)C(=O)N[C@@H](CC(C)C)C(=O)N[C@@H](CCCNC(=N)N)C(N)=O [compound 165] (HELM PEPTIDE1{[ac].M.R.W.Q.E.M.G.Y.I.F.Y.P.R.[dA].L.R.[am]}$$$$V2.0) | 82.0
Ac-LKWQEMGYIFYPLRKR-NH2 [compound 113] | 82.8
CC[C@H](C)[C@H](NC(=O)[C@H](Cc1ccc(O)cc1)NC(=O)CNC(=O)[C@H](CCSC)NC(=O)[C@H](CCC(=O)O)NC(=O)[C@H](CCC(N)=O)NC(=O)[C@@H](C)NC(=O)[C@H](CCCNC(=N)N)NC(=O)[C@@H](N)CCSC)C(=O)N[C@@H](Cc1ccccc1)C(=O)N[C@@H](Cc1ccc(O)cc1)C(=O)N1CCC[C@H]1C(=O)N[C@@H](CCCNC(=N)N)C(=O)N[C@@H](CCCCN)C(=O)N[C@@H](CC(C)C)C(=O)N[C@@H](CCCNC(=N)N)C(=O)O [compound 138] (HELM PEPTIDE1{M.R.[dA].Q.E.M.G.Y.I.F.Y.P.R.K.L.R}$$$$V2.0) | 71.5
Ac-LKWQEMGYIFYPRKLR-NH2 [compound 112] | 90.5
H-MKWQEMGYIFYPRKLR-OH [compound 122] | 52.1
H-MRWQEMGYIFYPRKLK-OH [compound 124] | 68.9
CC[C@H](C)[C@H](NC(=O)[C@H](Cc1ccc(O)cc1)NC(=O)CNC(=O)[C@H](CCSC)NC(=O)[C@H](CCC(=O)O)NC(=O)[C@H](CCC(N)=O)NC(=O)[C@H](Cc1c[nH]c2ccccc12)NC(=O)C(C)(C)NC(=O)[C@H](CCSC)NC(C)=O)C(=O)N[C@@H](Cc1ccccc1)C(=O)N[C@@H](Cc1ccc(O)cc1)C(=O)N1CCC[C@H]1C(=O)N[C@@H](CCCNC(=N)N)C(=O)N[C@@H](CCCCN)C(=O)N[C@@H](CC(C)C)C(=O)N[C@@H](CCCNC(=N)N)C(N)=O [compound 121] (HELM PEPTIDE1{[ac].M.[Aib].W.Q.E.M.G.Y.I.F.Y.P.R.K.L.R.[am]}$$$$V2.0) | 89.8
H-MRWQDMGYIFYPRRLR-OH [compound 126] | 55.6
Ac-LRWQEMGYIFYPRLKR-NH2 [compound 110] | 82.6
Ac-MRWQEMGYIFYPRKL-NH2 [compound 59] | 92.2
Ac-MRWQEMGEIFYPRKLR-NH2 [compound 189] | 87.6
H-MRWQEMGYIFYPRELR-OH [compound 180] | 47.0
Ac-MAWQEMGYIFYPRKLR-NH2 [compound 23] | 74.7
H-ERWQEMGYIFYPRKLR-OH [compound 168] | 52.2
